Laboratory results taken from PubChem BioAssay AID1963829 (Molecular Pharmacology Branch, DTP, NCI, 2024).
“And” between values parts separate entries of the source, which are not always exact repeats. Equal entries are not always repeated.

Tested on: 935938-334-R-J1-PDC complex spheroid viability
Test: Anticancer human tumor 935938-334-R-J1-PDC patient-derived small intestine adenocarcinoma cell line growth inhibition [POLQ]
Details: for viability, T/C: stronger effect = lower value
Method: Multicellular complex tumor spheroid response to Polymerase (POL) inhibitors (novobiocin, ART-558, RP6685) in combination with a variety of drugs and investigational agents in selected tumor cell lines
The POL inhibitors (novobiocin, ART-558, and RP6685) were evaluated both individually and in combination with standard of care and investigational anticancer small molecules within a complex spheroid model of solid tumors. . Complex spheroids include a stromal component modeled by human endothelial cells (HUVEC) and fibroblasts modeled by human mesenchymal stem cells (MSCs). The concentration ranges selected for each drug and investigational agent were based upon clinically achievable concentrations if the clinical Cmax of the agent was known.
Compounds. The drugs and investigational agents: novobiocin (NSC847541), ART-558 (NSC835418), RP-6685 (NSC848927), peposertib (NSC802822), ceralasertib (NSC780249), elimusertib (NSC800525), camonsertib (NSC841442), AZD-1390 (NSC803789), olaparib (NSC753686), talazoparib (NSC767125), rucaparib (NSC756644), sotorasib (NSC818433), MRTX-1133 (NSC836407), SN-38 (NSC673596), topotecan (NSC609699), epotoside (NSC141540), doxorubicin (NSC123127), gemcitabine (NSC613327), 5-fluorouracil (NSC19893), paclitaxel (NSC125973), vemurafenib (NSC761431), MSA-2 (NSC828583), SN-011 (NSC837082), adavosertib (NSC754352), prexasertib (NSC758257), carboplatin (NSC241240) and oxaliplatin (NSC266046), were obtained from the National Cancer Institute (NCI) Developmental Therapeutics Program Chemical Repository (21). The FDA-approved anticancer drug set is available from the Developmental Therapeutics Program at https://dtp.cancer.gov/organization/dscb/obtaining/. […] The stock solutions were prepared in dimethyl sulfoxide (DMSO, Sigma-Aldrich, St. Louis, MO, cat. D2650), except for the platinum compounds which were prepared in saline (Quality Biological, Gaithersburg, MD, cat. 114-055-101), at 800-fold the tested concentration and stored at -70 degrees C prior to their use. All drugs and investigational agents were tested over a range starting from a high concentration at or near the clinical Cmax and decreasing in half-log increments. If the clinical Cmax for an agent had not been determined, the highest concentration tested was 10 microM, except for SN-38, which was tested at a high concentration of 1 microM.
Cell Culture. All cells were maintained in an incubator at 37 degrees C and 5% CO2 with 95% humidity. The PDC lines were cultured according to standard operating procedures established by the NCI PDMR (https://pdmr.cancer.gov). Table 3 of the manuscript, lists the cell lines along with the number of the three cell types plated to form the mct-spheroids and media for tumor cell growth. After thawing, all PDC lines, except 997537-175-T-J1-PDC and 415267-285-R-J2-PDC, were cultured in Matrigel-coated flasks prepared with a working solution of 1X Ham's F-12 nutrient mix, without supplementation (Thermo Fisher Scientific, cat. 11765054), 100 U/mL penicillin-streptomycin (Thermo Fisher Scientific, cat. 15140122), and 2.5% Matrigel (Corning Inc., Corning, NY, cat. 354248) for the first three passages. The two PDC lines 997537-175-T-J1-PDC and 415267-285-R-J2-PDC were cultured on uncoated flasks. The 857933-349-R-J2-PDC line was cultured in 6C/Colon 1B media containing advanced DMEM/F-12 (Thermo Fisher Scientific, cat. 12634028), 10 mM HEPES (Thermo Fisher Scientific, cat. 15630080), 1X GlutaMAX supplement (Thermo Fisher Scientific, cat. 35050061), 0.1 mg/mL primocin (InvivoGen, San Diego, CA, cat. ant-pm-2), 10% defined fetal bovine serum, heat inactivated (HyClone Laboratories Inc., Logan, UT, cat. SH30070.03HI), 50% L-WRN conditioned media (ATCC, cat. CRL-3276), 1.25 mM N-Acetyl-L-cysteine (Sigma-Aldrich, cat. A9165), 10 mM nicotinamide (Sigma-Aldrich, cat. N0636), 1X B-27 supplement (Thermo Fisher Scientific, cat. 17504044), 1X N-2 supplement (Thermo Fisher Scientific, cat. […]
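Further: spheroids exposed to drugs for seven days before viability read.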
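Wherever viability, T/C is given: 100% = DMSO vehicle control wells.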

**Q.** For `CC(C)n1c(=O)n(C)c2cnc3cc(F)c(-c4ccc(OCCCN5CCCCC5)nc4)cc3c21`, which viability, T/C (compound 0.0316 µM) is on record?
**A.** The viability, T/C was 75.1% and 94.3% and 79.1%.

**Q.** And the viability, T/C (compound 0.1 µM)?
**A.** Its viability, T/C is 104% and 75.2% and 67.4%.

**Q.** And the viability, T/C (compound 0.316 µM)?
**A.** The viability, T/C was 103% and 102% and 65.2%.

**Q.** What about the viability, T/C (compound 1 µM) of the same compound?
**A.** The viability, T/C was 92.1% and 121% and 73.4%.

**Q.** And the viability, T/C (compound 3.16 µM)?
**A.** Its viability, T/C is 113% and 120% and 72.1%.

**Q.** What about the viability, T/C (compound 10 µM) of the same compound?
**A.** The viability, T/C was 94.9% and 91.5% and 72.9%.

**Q.** What about the IC50 (curve of compound) of the same compound?
**A.** The IC50 was greater than 10000 nM.

**Q.** For `CC1COCCN1c1cc(C2(O)CC3CCC(C2)O3)c2cnn(-c3ccn[nH]3)c2n1` (configuration not stated) + COC1C(OC(N)=O)C(O)C(Oc2ccc3c(O)c(NC(=O)c4ccc(O)c(CC=C(C)C)c4)c(=O)oc3c2C)OC1(C)C, which IC50 (curve of first compound, second compound 0.0316 µM) is on record?
**A.** Its IC50 is 244 nM.

**Q.** And the IC50 (curve of first compound, second compound 0.1 µM)?
**A.** Its IC50 is 207 nM.

**Q.** And the IC50 (curve of first compound, second compound 0.316 µM)?
**A.** The IC50 was 168 nM.

**Q.** And the IC50 (curve of first compound, second compound 1 µM)?
**A.** The IC50 was 216 nM.

**Q.** And the IC50 (curve of first compound, second compound 3.16 µM)?
**A.** The IC50 was 177 nM.

**Q.** What about the IC50 (curve of first compound, second compound 10 µM) of the same compound?
**A.** The IC50 was 97 nM.

**Q.** And the viability, T/C (second compound 0.0316 µM, first compound 0.0316 µM)?
**A.** Its viability, T/C is 82.5%.

**Q.** And the viability, T/C (second compound 0.0316 µM, first compound 0.1 µM)?
**A.** The viability, T/C was 71.2%.

**Q.** And the viability, T/C (second compound 0.0316 µM, first compound 0.316 µM)?
**A.** Its viability, T/C is 43.8%.

**Q.** And the viability, T/C (second compound 0.0316 µM, first compound 1 µM)?
**A.** The viability, T/C was 20.1%.

**Q.** What about the viability, T/C (second compound 0.0316 µM, first compound 3.16 µM) of the same compound?
**A.** Its viability, T/C is 14.7%.

**Q.** What about the viability, T/C (second compound 0.0316 µM, first compound 10 µM) of the same compound?
**A.** The viability, T/C was 8.68%.

**Q.** What about the viability, T/C (second compound 0.1 µM, first compound 0.0316 µM) of the same compound?
**A.** Its viability, T/C is 114%.

**Q.** What about the viability, T/C (second compound 0.1 µM, first compound 0.1 µM) of the same compound?
**A.** Its viability, T/C is 71.9%.

**Q.** And the viability, T/C (second compound 0.1 µM, first compound 0.316 µM)?
**A.** The viability, T/C was 36.4%.

**Q.** And the viability, T/C (second compound 0.1 µM, first compound 1 µM)?
**A.** Its viability, T/C is 21.1%.

**Q.** And the viability, T/C (second compound 0.1 µM, first compound 3.16 µM)?
**A.** The viability, T/C was 18.7%.

**Q.** And the viability, T/C (second compound 0.1 µM, first compound 10 µM)?
**A.** Its viability, T/C is 9.26%.

**Q.** And the viability, T/C (second compound 0.316 µM, first compound 0.0316 µM)?
**A.** Its viability, T/C is 75.7%.

**Q.** What about the viability, T/C (second compound 0.316 µM, first compound 0.1 µM) of the same compound?
**A.** The viability, T/C was 65.8%.

**Q.** And the viability, T/C (second compound 0.316 µM, first compound 0.316 µM)?
**A.** Its viability, T/C is 30.4%.

**Q.** And the viability, T/C (second compound 0.316 µM, first compound 1 µM)?
**A.** Its viability, T/C is 21.5%.

**Q.** What about the viability, T/C (second compound 0.316 µM, first compound 3.16 µM) of the same compound?
**A.** Its viability, T/C is 16.8%.

**Q.** What about the viability, T/C (second compound 0.316 µM, first compound 10 µM) of the same compound?
**A.** Its viability, T/C is 11.5%.

**Q.** And the viability, T/C (second compound 1 µM, first compound 0.0316 µM)?
**A.** Its viability, T/C is 79.1%.

**Q.** And the viability, T/C (second compound 1 µM, first compound 0.1 µM)?
**A.** Its viability, T/C is 78.6%.

**Q.** What about the viability, T/C (second compound 1 µM, first compound 0.316 µM) of the same compound?
**A.** Its viability, T/C is 35.8%.

**Q.** What about the viability, T/C (second compound 1 µM, first compound 1 µM) of the same compound?
**A.** The viability, T/C was 23.2%.

**Q.** What about the viability, T/C (second compound 1 µM, first compound 3.16 µM) of the same compound?
**A.** Its viability, T/C is 13.5%.

**Q.** What about the viability, T/C (second compound 1 µM, first compound 10 µM) of the same compound?
**A.** The viability, T/C was 11.3%.

**Q.** What about the viability, T/C (second compound 3.16 µM, first compound 0.0316 µM) of the same compound?
**A.** Its viability, T/C is 102%.

**Q.** And the viability, T/C (second compound 3.16 µM, first compound 0.1 µM)?
**A.** The viability, T/C was 63.3%.

**Q.** What about the viability, T/C (second compound 3.16 µM, first compound 0.316 µM) of the same compound?
**A.** The viability, T/C was 36.5%.

**Q.** What about the viability, T/C (second compound 3.16 µM, first compound 1 µM) of the same compound?
**A.** The viability, T/C was 20.9%.

**Q.** What about the viability, T/C (second compound 3.16 µM, first compound 3.16 µM) of the same compound?
**A.** The viability, T/C was 15.1%.

**Q.** What about the viability, T/C (second compound 3.16 µM, first compound 10 µM) of the same compound?
**A.** Its viability, T/C is 10.2%.

**Q.** What about the viability, T/C (second compound 10 µM, first compound 0.0316 µM) of the same compound?
**A.** The viability, T/C was 88.2%.

**Q.** What about the viability, T/C (second compound 10 µM, first compound 0.1 µM) of the same compound?
**A.** The viability, T/C was 48.9%.

**Q.** What about the viability, T/C (second compound 10 µM, first compound 0.316 µM) of the same compound?
**A.** The viability, T/C was 27.9%.

**Q.** What about the viability, T/C (second compound 10 µM, first compound 1 µM) of the same compound?
**A.** Its viability, T/C is 16.6%.

**Q.** What about the viability, T/C (second compound 10 µM, first compound 3.16 µM) of the same compound?
**A.** The viability, T/C was 15.7%.

**Q.** And the viability, T/C (second compound 10 µM, first compound 10 µM)?
**A.** Its viability, T/C is 8.92%.

**Q.** How did the viability, T/C (compound 0.00949 µM) turn out when `CC(=O)O[C@H]1C(=O)[C@@]2(C)[C@H]([C@H](OC(=O)c3ccccc3)[C@]3(O)C[C@H](OC(=O)[C@H](O)[C@@H](NC(=O)c4ccccc4)c4ccccc4)C(C)=C1C3(C)C)[C@]1(OC(C)=O)CO[C@@H]1C[C@@H]2O` was run?
**A.** Its viability, T/C is 35.5% and 53.2% and 37.8%.

**Q.** What about the viability, T/C (compound 0.03 µM) of the same compound?
**A.** Its viability, T/C is 18.7% and 20.8% and 19.2%.

**Q.** And the viability, T/C (compound 0.0949 µM)?
**A.** Its viability, T/C is 15.8% and 15.7% and 16%.

**Q.** And the viability, T/C (compound 0.3 µM)?
**A.** The viability, T/C was 12.4% and 16.4% and 17%.

**Q.** What about the viability, T/C (compound 0.949 µM) of the same compound?
**A.** Its viability, T/C is 14.9% and 15.7% and 13.9%.

**Q.** And the viability, T/C (compound 3 µM)?
**A.** The viability, T/C was 17.9% and 19.1% and 19.5%.

**Q.** What about the IC50 (curve of compound) of the same compound?
**A.** The IC50 was < 9.49 nM and 10.6 nM.

**Q.** How did the IC50 (compound alone, run of 11/27/2023) turn out when `COC1C(OC(N)=O)C(O)C(Oc2ccc3c(O)c(NC(=O)c4ccc(O)c(CC=C(C)C)c4)c(=O)oc3c2C)OC1(C)C` (configuration not stated) was run?
**A.** Its IC50 is greater than 10000 nM.
